Here are results for two molecules from US8236756B2, “Prodrugs cleavable by CD26” (Consejo Superior de Investigaciones Clentificas (CSIC), priority 2003, dated 2012).

The target in data set [1] is T1, purified CD26 (Homo sapiens, UniProt P27487).
T1 construct: made in house
In words: Effect of CD26 inhibitor on conversion of CAM-405 to CAM-212 by purified CD26. Type of data set: biochemical. The note with it: CD26 1.5 mUnits, 50 μM CAM-405. As to the method:
(§1) CD26-catalysed CAM-405 conversion to CAM-212 was recorded in the absence or presence of the CD26 inhibitor diprotin A (FIG. 5). […] These observations point to CD26 as the main and predominant enzyme responsible in HS and BS to remove the dipeptide part from the lipophilic NAP-TSAO dipeptide nucleoside analogue.
(§2) All enzyme activity assays were performed in Eppendorf tubes on a heating block at 37° C. To each tube were added 32 μl CD26 (at a final concentration of 1.5 milliUnits) or 10 μl foetal bovine serum (BS) (final concentration: 2.5% BS in PBS; preheated at 56° C. for 30 min) or 10 μl human serum (HS) (final concentration: 2.5% HS in PBS), 40 μl of appropriate concentrations of inhibitor (Diprotin A) solution in PBS (for the exact concentrations, see the legend to FIG. 5), CAM-405 (the substrate of the reaction) at […] (final concentration) and PBS to reach a total volume of 400 μl. The pH of the reaction mixture was 7.5, which is virtually identical to the physiological pH of plasma. The reaction was started by the addition of the enzyme or serum and carried out at 37° C. After 5 hr, 100 μl reaction mixture was taken from the Eppendorf tube and added to 200 μl cold methanol to precipitate the proteins. After 10 min standing on ice, the contents of the tubes were centrifuged and the supernatants analysed by HPLC on a reverse phase column (RP-8, Merck Laboratories). […]

A short description of data set [2]: Effect of CD26 inhibitor on conversion of CAM-405 to CAM-212 by human serum. Type of data set: biochemical. The note with it: 2.5% HS in PBS, 50 μM CAM-405. As to the method:
as §1, §2

The nature of data set [3]: Effect of CD26 inhibitor on conversion of CAM-405 to CAM-212 by bovine serum. Type of data set: biochemical. The following applies: 2.5% BS in PBS, 50 μM CAM-405. As to the method: as §1, §2
Data set [4] concerns the target T1, purified CD26. Briefly: Conversion of peptide prodrugs to parent compound by purified CD26 (HPLC). Type of data set: biochemical. As to the method: To reveal whether CD26 recognizes such synthetic di/tripeptide derivatives of lipophilic nucleoside analogues as a substrate, 50 μM CAM-405 or CAM-431 was exposed to 5.7 mUnits of purified CD26, and the conversion of CAM-405 or CAM-431 to respectively CAM-212 or CAM-403 (Val-NAP-TSAO) was recorded in function of incubation time by HPLC analysis. […] Within the first 10 min of the reaction, at least 20% of CAM-405 had been converted to CAM-212, fifty percent of the TSAO dipeptide derivative was converted to CAM-212 within 30 min of the reaction and ˜67% of CAM-405 was hydrolyse after 60 min. Thus, the reaction rate started already to slow down after the first 10 min of drug exposure (FIG. 2). Most likely, the release of the reaction product Val-Pro dose-dependently feed-back inhibited the CD26-catalysed dipeptidyl-peptidase reaction. […] Thus, in the presence of 50 μM CAM-405, hydrolysis of 50% of CAM-405 to CAM-212 results in the appearance of 25 μM Val-Pro, that is a concentration that (feed-back) inhibits the CD26 reaction by ˜50%. These findings explain why the CD26-catalysed reaction levels-off shortly after the start of the exposure of the drug to CD26. […] Thus, a further level of modulation of the rate of prodrug release can be introduced by choosing a dipeptide moiety that competes for the active site of CD26, until the dipeptide has diffused from the tissue wherein CD26 is present. The inhibitory activity of any dipeptide can be evaluated by the above mentioned assay.
The conversion rate in function of time is given in Table 1 for NAP-TSAO-dipeptides where the dipeptide consists of: Val-Pro, Val-D-Pro, Asp-Pro, Lys-Pro, Tyr-Pro, Gly-Pro, Val-4-hydroxyPro, Gly-3,4-dihydroxyPro, but also Val-Gly, Val-Ala, Val-Leu and Val-Phe. It is clear that the conversion rate to the parent NAP-TSAO differs depending the nature of the dipeptide. Also, when the terminal amine of the dipeptide has been blocked by a lipophilic group (i.e. methyl, Z or Fmoc), the prodrug looses measurable substrate activity for CD26.
The conversion rate in function of time is given in Table 2 for tetrapeptide NAP-TSAO compounds where the tetrapeptide consists of: Val-Pro-Val-Pro [SEQ ID no:6] (CAM 467), Val-Ala-Val-Pro [SEQ ID no:7] (CAM 473) or Lys-Pro-Asp-Pro [SEQ ID no:8] (CAM 477). […] Only traces of dipeptide prodrug (CAM 405) is seen as intermediate in the conversion of the tetrapeptide CAM 473 to NAP-TSAO.
as §2, with “Laboratories). CAM-405 was separated from CAM-212 (the product of the reaction) by a gradient of 50 mM sodium phosphate+5 mM heptane sulfonic acid pH 3.2 (Buffer A) and acetonitrile (Buffer B) as follows: Buffer A: 98%+2% Buffer B, 2 min; linear gradient to 20% Buffer.” for “Laboratories).”

A short description of data set [5]: Conversion of prodrugs to parent compound by human serum diluted in PBS. In kind it is in vitro ADME. As to the method:
(§3) Human and bovine serum were incubated for 3 hr, 6 hr and/or 24 hr at 37° C. in the presence of 50 μM CAM-405. The sera were diluted in PBS at a final concentration of 0.5, 1, 2.5 or 5%. […] The longer the incubation time, and the higher the serum concentration used, the faster the conversion of CAM-405 to CAM-212 occurred (FIG. 4). As also noted for CD26, HS- and BS-catalysed reaction slowed down in function of time, and was not linearly proportional with serum concentration (FIG. 4). These findings provide again evidence for a pronounced feed-back inhibition of dipeptidyl-peptidase activity in human and bovine serum by the released Val-Pro dipeptide. HS was more efficient in converting CAM-405 to CAM-212 than BS (FIG. 4). Since 1% HS is able to hydrolyse ˜20% of 50 μM CAM-405 within 3 hrs of incubation, it could be calculated that undiluted serum would have been able to convert this prodrug amount to its parent compound at a hundred fold higher speed, that is, within 1.8 min, provided that no feed-back inhibition would have occurred (as expected in the intact organism where release of Pro-Val would immediately result in disappearance from the plasma due to several mechanisms including organ uptake, renal excretion, etc.).
Only a very limited amount of NAP-TSAO (but not D-Pro-NAP-TSAO) had been detected (FIG. 6).
(§4) Ten percent BS or HS converted 40 to 70% of PI-2 to PI-1 in one hour (FIG. 10). Two percent BS and HS converted PI-2 to PI-1 by 8% and 25%, respectively. After 4 hrs, 35% and 95% of compound was hydrolyzed by BS and HS, respectively (FIG. 11).
(§5) The TSAO derivatives depicted in FIG. 1 can be synthesised as described below. GlyPro-pNA (GP-pNA), Diprotin A and Val-Pro were purchased from Sigma-Aldrich (Bornem, Belgium). CD26 was purified as described before [De Meester et al. J. Immunol. Methods (1996), 189: 99-105]. Foetal bovine serum (FBS) was obtained from Integro (Dieren, The Netherlands). Human serum represented a pooled serum that was derived from 10 healthy volunteers (blood donors). Human lymphocyte CEM cells were derived from the ATCC (Rockville, Md.).

Data set [6] can be described thus: Conversion of prodrugs to parent compound by bovine serum diluted in PBS. In kind it is in vitro ADME. The note with it: 50 μM; 0.5-5% BS in PBS; 3, 6, 24 hr; 37° C. On the procedure: as §3, §4, §5
The subject of data set [7] is T-lymphocytic CEM cell suspensions. In words: Conversion of Val-Pro-NAP-TSAO to NAP-TSAO by CEM cell suspensions. In kind it is cell-based, human. The note with it: ten million CEM cells in 200 μl PBS; 3 hrs; 37° C. On the procedure:
The conversion of Val-Pro-NAP-TSAO (CAM-405) to NAP-TSAO (CAM-212) also efficiently occurred by carefully washed T-lymphocytic CEM cell suspensions in PBS. Ten million CEM cells suspended in 200 μl PBS hydrolysed the Val-Pro moiety from CAM-405 by 65% within 3 hrs of incubation at 37° C. This amount of hydrolysis was found both in the PBS supernatant and in the CEM cell extracts. Presumably, CD26 present in the cell membrane of CEM cells had cleaved-off the Val-Pro from CAM-405 after which both truncated and intact prodrug had been taken up by the lymphocytic cells to an equal extent.
as §5

Data set [8] addresses T1, purified CD26. Briefly: Conversion of peptide prodrugs to parent compound by purified CD26 (HPLC). The following applies: 50 μM, 5.7 mUnits purified CD26, 37° C. In kind it is biochemical.

Some results are limits rather than exact numbers.

T1 sequence (P27487 whole entry): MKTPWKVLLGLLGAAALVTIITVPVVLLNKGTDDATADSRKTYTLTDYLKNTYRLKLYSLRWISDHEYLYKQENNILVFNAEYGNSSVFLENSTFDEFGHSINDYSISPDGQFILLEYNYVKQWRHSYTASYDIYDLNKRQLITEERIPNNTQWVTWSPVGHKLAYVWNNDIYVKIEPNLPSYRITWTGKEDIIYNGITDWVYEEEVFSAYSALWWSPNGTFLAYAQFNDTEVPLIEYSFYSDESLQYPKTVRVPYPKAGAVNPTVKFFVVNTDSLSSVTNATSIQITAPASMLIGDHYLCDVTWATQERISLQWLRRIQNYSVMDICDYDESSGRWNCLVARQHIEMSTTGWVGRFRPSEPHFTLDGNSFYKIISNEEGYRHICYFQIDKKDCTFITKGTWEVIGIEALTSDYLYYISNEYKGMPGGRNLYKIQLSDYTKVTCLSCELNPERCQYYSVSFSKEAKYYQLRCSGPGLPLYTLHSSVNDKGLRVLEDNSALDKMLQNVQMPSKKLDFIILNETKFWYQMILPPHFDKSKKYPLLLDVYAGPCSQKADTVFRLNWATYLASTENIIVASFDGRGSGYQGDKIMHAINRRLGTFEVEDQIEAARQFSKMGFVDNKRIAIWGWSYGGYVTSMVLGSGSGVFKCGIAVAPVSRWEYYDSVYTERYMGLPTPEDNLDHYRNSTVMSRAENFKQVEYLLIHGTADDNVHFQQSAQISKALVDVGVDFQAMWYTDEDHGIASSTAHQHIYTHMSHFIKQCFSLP

On to Diprotin A, for which, on purified CD26 [1] (100 μM), the “Suppression of conversion of CAM-405 to CAM-212 by purified CD26 at 100 μM inhibitor” value is listed as above 50%. Further, at purified CD26 [1] (1000 μM), the “Prevention of conversion of CAM-405 to CAM-212 by purified CD26 at 1000 μM inhibitor” value is “nearly complete prevention”. Also, the “Suppression of conversion of CAM-405 to CAM-212 by HS at 100 μM inhibitor” value in data set [2] (100 μM) is above 50%. For the same molecule, the “Prevention of conversion of CAM-405 to CAM-212 in HS at 1000 μM inhibitor” value in data set [2] (1000 μM) is reported as “nearly complete prevention”. In addition, the “Suppression of conversion of CAM-405 to CAM-212 by BS at 100 μM inhibitor” value in data set [3] (100 μM) was above 50%. In addition, in data set [3] (1000 μM), the “Prevention of conversion of CAM-405 to CAM-212 in BS at 1000 μM inhibitor” value is on record as “nearly complete prevention”.

As to `Cc1cn(C2OC(CO[Si](C)(C)C(C)(C)C)C3(OS(=O)(=O)C=C3N)C2O[Si](C)(C)C(C)(C)C)c(=O)n(CCCNC(=O)[C@@H]2CCCN2C(=O)[C@@H](N)C(C)C)c1=O` (stereo partly drawn) [CAM-405, H-Val-Pro-NAP-TSAO], at purified CD26 [4] (50 μM, 5.7 mUnits purified CD26, 37° C., 10 min), the “Conversion of CAM-405 to CAM-212, first 10 min” value is recorded as “at least 20%”. At purified CD26 [4] (50 μM, 5.7 mUnits purified CD26, 37° C., 30 min), the “Conversion of CAM-405 to CAM-212, within 30 min” value is “fifty”. In addition, the “Conversion % to parent compound by purified CD26, 1 h” value on purified CD26 [4] (Table 1, purified CD26 1.5 mUnits, 1 h) turned out to be 37%. The “Conversion % to parent compound by purified CD26, 4 h” value on purified CD26 [4] (Table 1, purified CD26 1.5 mUnits, 4 h) was 62%. For the same molecule, the “Conversion % to parent compound by purified CD26, 24 h” value at purified CD26 [4] (Table 1, purified CD26 1.5 mUnits, 24 h) was found to be 61%. In addition, the “% conversion to parent compound by purified CD26, 1 h” value at purified CD26 [4] (Table 2, purified CD26 1.5 mUnits, 1 h) is 37%. Besides, on purified CD26 [4] (Table 2, purified CD26 1.5 mUnits, 4 h), the “% conversion to parent compound by purified CD26, 4 h” value came to 62%. For the same molecule, the “% conversion to parent compound by purified CD26, 24 h” value at purified CD26 [4] (Table 2, purified CD26 1.5 mUnits, 24 h) came out at 61%. Further, the “Calculated time for undiluted serum to convert this prodrug amount to parent compound” value is on record as “less than 1.8 min” in data set [5] (10 μM, extrapolated from 1% human serum) and at most 1.8 min in data set [5] (undiluted human serum, extrapolated, provided no feed-back inhibition). The “Conversion of CAM-405 to CAM-212 by human serum, in words” value in data set [5] (50 μM, 0.5-5% HS in PBS, 3, 6, 24 hr, 37° C.) is recorded as “efficiently converted”. Besides, the “Hydrolysis of CAM-405 by 1% human serum within 3 hrs” value in data set [5] (50 μM, 1% HS in PBS, 3 hrs, 37° C.) is on record as around 20%. For the same molecule, in data set [6], the “Conversion of CAM-405 to CAM-212 by bovine serum, in words” value was “efficiently converted”. The “Hydrolysis of the Val-Pro moiety by CEM cells” value in data set [7] was determined as 65%. In addition, the “Hydrolysis of CAM-405, after 60 min” value on purified CD26 [8] is listed as around 67%.
